From article PMC10350924, “Design, Synthesis, and Pharmacological Characterization of a Potent Soluble Epoxide Hydrolase Inhibitor for the Treatment of Acute Pancreatitis” (Journal of Medicinal Chemistry, 2023)

Tested on: EETs, DHETs and HETEs in pancreas homogenates
Assay: Targeted metabololipidomics of pancreas homogenates (cerulein AP mice)
Type: in vivo
Conditions: not statistically significant
Method: The extraction of targeted lipid mediators from pancreas was performed as follows: tissues were lyophilized and weighted, 10 mg was homogenized and deproteinized with 500 μL of ice-cold 10% v/v MeOH spiked with labeled standards, and subsequently diluted with 500 μL of phosphate-buffered saline (PBS). Samples were then loaded on solid-phase extraction cartridges, Strata-X reversed-phase SPE columns (100 mg/3 mL) (Phenomenex, Bologna, Italy). Cartridges were conditioned with 3 mL of MeOH and equilibrated with 3 mL of ddH2O. Following loading, washed with 1 mL of 10% MeOH v/v, and finally eluted with 1.5 mL of MeOH. Eluted samples were dried with a SpeedVac (Savant, Thermo Scientific, Milan, Italy) and dissolved prior to UHPLC-MS/MS analyses in 50 μL of UHPLC solvent A.
The analyses were acquired using a Shimadzu Nexera UHPLC (Kyoto, Japan) coupled online to a triple quadrupole LCMS-8050 (Shimadzu) equipped with an electrospray ionization (ESI) source operating in ESI negative mode. The separation was performed on a Kinetex EVO C18 150 mm × 2.1 mm, 2.6 μm (100 Å) (Phenomenex, Bologna, Italy). The flow rate was set to 0.4 mL/min, and the column oven was set at 40 °C. The mobile phases were, respectively: (A) ACN/H2O 45:55 acidified with 0.02% CH3COOH v/v and (B) ACN/IPA 50:50. The following gradient was used: 0 min, 0%B, 0–12 min 60%B, 12.10 min, 60–99%B, 12.10–13.05 isocratic to 99% B; returning to 0% B in 0.1. MS source parameters: desolvation Line (DL) 250 °C, interface: 300 °C, block heater 350 °C, nebulizing (N2), drying (N2), and heating (Air) gas pressures: 3, 10, 10 L/min. Each analyte was optimized by infusing standard solution at 0.2 mg/mL, multiple reaction monitoring (MRM) mode was used. Detailed MRM parameters are available in Table S3. […]

## CC(C)c1ccc(Cn2ccc3cc(NC(=O)NCC45C[C@H]6C[C@@H](C4)C[C@@H](C5)C6)ccc32)cc1 [Compound 28, 1-(((3R,5R,7R)-Adamantan-1-yl)methyl)-3-(1-(4-isopropylbenzyl)-1H-indol-5-yl)urea]
  change of DHET levels with respect to vehicle: −31.5%
  change of EETs levels with respect to vehicle: +21.9%
  change of HETEs levels (15-HETE, 12-HETE, 5-HETE) with respect to vehicle: −13.4%
